According to US20240245789A1, “POLYMER CONJUGATES OF DRUGS TARGETING 5-HT AND OTHER RECEPTORS IN THE CENTRAL NERVOUS SYSTEM (CNS) THAT ALSO TARGETS RECEPTORS OUTSIDE OF THE CNS” (Arbormentis LLC, priority 2021, published 2024):

Key:
[1] = test system: mice fed with standard diet; conditions: 0.05 mg/kg daily
NMDAR1 receptor = assay: protein expression of NMDAR1 in the liver of NAFLD mice
CCL-2 = assay: mRNA expression of CCL2 in HepG2 cells (in vitro NAFLD model); conditions: PA:OA mix
TNF-α = assay: mRNA expression of TNF-α in HepG2 cells (in vitro NAFLD model); conditions: PA:OA mix

Row | Structure (SMILES) | signs of hepatic damage (hepatotoxicity) [1] | expression of the NMDAR1 receptor in the liver (NMDAR1 receptor) | mRNA expression of CCL-2 (CCL-2) | mRNA expression of TNF-α (TNF-α)
1 | CN(C)CCc1c[nH]c2cccc(OP(=O)(O)O)c12 [psilocybin] | no signs of hepatic damage were observed | – | – | –
2 | CN(C)CCc1c[nH]c2cccc(O)c12 [psilocin] | – | counteracting its overexpression induced by steatosis | reduction in the mRNA expression | reduction in the mRNA expression
